Reference: PMC5902495, “Synthesis of Symmetrical Tetrameric Conjugates of the Radiolanthanide Chelator DOTPI for Application in Endoradiotherapy by Means of Click Chemistry” (Frontiers in Chemistry, 2018)
Read-outs that look alike come from different tables or passages of the source.

Experiments:
[1] = 25°C, I = 0.1 M Me4NCl; ref Lázár et al., [1991]; cited from earlier work
[2] = 25°C, I = 0.1 M Me4NCl, ref Šimeček et al., [2013], cited from earlier work
[3] = Protonation constants of ligands by pH-potentiometry; type: physicochemical; settings: 25°C, I = 0.15 M NaCl
Text: (§1) For determining the protonation constants of DOTPI(Chx)4 and DOTPI three parallel pH-potentiometric titration were made with 0.2 M NaOH in 0.002 M ligand solutions. The stability and protonation constants of the Ca^II and Zn^II complexes formed with DOTPI(Chx)4 and DOTPI ligands have been determined by direct pH-potentiometric titration made at 1:1 and 2:1 metal to ligand concentration ratios. (the concentration of ligands was 0.002 M). For the calculation of the logKML and logKMLHi values, the mL base—pH data used were obtained in the pH range 1.7–12.0.
(§2) For pH measurements and titrations, a Metrohm 785 DMP Titrino titration workstation and a Metrohm-6.0233.100 combined electrode were used. Equilibrium measurements were carried out at a constant ionic strength (0.15 M NaCl) in 6 mL samples at 25°C. The solutions were stirred, and constantly purged with N2. The titrations were performed in a pH range of 1.7–11.7. KH-phthalate (pH = 4.005) and borax (pH = 9.177) buffers were used to calibrate the pH meter. For calculation of [H^+] from measured pH values, the method proposed by Irving et al. was used (Irving et al., [1967]). A 0.01 M HCl solution was titrated with the standardized NaOH solution in the presence of 0.1 M NaCl. Differences between the measured (pHread) and calculated pH (–log[H^+]) values were used to obtain the equilibrium H^+ concentration from the pH values, measured in the titration experiments. For the equilibrium calculations, the stoichiometric water ionic product (pKw) is also needed to calculate [H^+] values in basic conditions. The VNaOH – pHread data pairs of the HCl – NaOH titration obtained in the pH range 10.5–12 have been used to calculate the pKw value (pKw = 13.85). For the calculation of the equilibrium constants the program PSEQUAD (Zekany and Nagypal, [1985]) was used.
(§3) 2. Protonation and complexation equilibria of DOTPI and
(§4) The protonation processes of the DOTPI and DOTPI(Chx)4, ligands have been studied by pH-potentiometry. The protonation constants (logKiH) of ligands are defined according to Eq. (1).
(§5) The stability and protonation constants of DOTPI and DOTPI(Chx)4 complexes with several metal ions were determined by pH-potentiometric and UV/Vis spectrophotometric, methods.
(§6) The stability and protonation constants of the metal complexes formed with the DOTPI and DOTPI(Chx)4, ligands, defined by Eqs. […]
(§7) where i = 1, 2, 3…5. The KML and KMHiL values characterizing the formation of DOTPI and DOTPI(Chx)4 complexes of CaII and ZnII have been calculated from the pH-potentiometric titration data obtained at 1:1 metal to ligand concentration ratios. The protonation constants of the complexes Cu(DOTPI) and Cu(DOTPI( Chx)4) were also determined by pH-potentiometric titrations, made at 1:1 metal to ligand concentration ratio. The pH-potentiometric titrations of DOTPI ligand were also performed at 2:1 metal-to-ligand ratio in order to examine the possible formation of dinuclear CaII-, ZnII-, and CuII-DOTPI complexes.
(§8) The stability and protonation constants of the dinuclear complexes formed with the DOTPI […]
(§9) where i=1 and 2. In calculating the equilibrium constants, the best fit of the mL base – pH data was obtained by assuming the formation of ML, MHL, MH 2L, MH3L, MH4L, MH5L, M2L, M2LH, and M2LH2 complexes with DOTPI and DOTPI(Chx)4.
(§10) (also on this page, place not known: ]H][LH[ ]LH[K 1i iH + − = DOTPI( Chx)4 f ormed ]L][M[ ]ML[K ML = ]H][LMH[ ]LMH[K 1i i LMHi + − = i 3 …5. Ca II Zn II -potentiometric pH - metal -to-ligand Cu II-DOTPI ]M][ML[ ]LM[K 2 LM2 = ]H][LHM[ ]LHM[K 1i2 i2 LHM i2 + − = pH MH 4L,) […]

[4] = 25°C, I = 0.1 M Me4NCl; ref Lázár et al., [1991]; cited from earlier work; remark: listed apart in the source
[5] = Stability and protonation constants of Zn^II complexes (pH-potentiometry); type: physicochemical; settings: 25°C, 0.15 M NaCl
Text: as §1, §2, §3, §4, §5, §6, §7, §8, §9, §10

[6] = Stability and protonation constants of Ca^II complexes (pH-potentiometry); type: physicochemical; settings: 25°C, 0.15 M NaCl
Text: as §1, §2, §3, §4, §5, §6
as §7, with “The pH-potentiometric titrations of DOTPI ligand were also performed at 2:1 metal-to-ligand ratio in order to examine the possible formation of dinuclear CaII-, ZnII-, and CuII-DOTPI complexes.” left out

[7] = distant carboxylate groups of DOTPI not considered

Question: For `O=C(O)CCP(=O)(O)CN1CCN(CP(=O)(O)CCC(=O)O)CCN(CP(=O)(O)CCC(=O)O)CCN(CP(=O)(O)CCC(=O)O)CC1` [DOTPI, 1,4,7,10-tetraazacyclododecane-1,4,7,10-tetrakis[methylene(2-carboxyethylphosphinic acid)]], which “logKML, CuL” value [1] is on record?
Answer: Its value is 23.11.

Question: And the “Σlog KiH (total basicity)” value [2, 7]?
Answer: Its value is 24.91.

Question: What about the “log K1H” value [2] of the same compound?
Answer: The value was 11.58.

Question: And the “log K2H” value [2]?
Answer: Its value is 8.90.

Question: What about the “log K3H” value [2] of the same compound?
Answer: Its value is 5.65.

Question: And the “log K4H” value [2]?
Answer: Its value is 4.98.

Question: What about the “log K5H” value [2] of the same compound?
Answer: The value was 4.61.

Question: And the “log K6H” value [2]?
Answer: The value was 4.07.

Question: And the “log K7H” value [2]?
Answer: The value was 3.12.

Question: And the “log K8H” value [2]?
Answer: Its value is 1.31.

Question: What about the “log K1H” value [3] of the same compound?
Answer: Its value is 10.27 (1).

Question: And the “log K2H” value [3]?
Answer: The value was 8.42 (1).

Question: What about the “log K3H” value [3] of the same compound?
Answer: Its value is 5.45 (2).

Question: And the “log K4H” value [3]?
Answer: Its value is 4.78 (2).

Question: What about the “log K5H” value [3] of the same compound?
Answer: The value was 4.42 (2).

Question: What about the “log K6H” value [3] of the same compound?
Answer: Its value is 3.88 (2).

Question: And the “log K7H” value [3]?
Answer: Its value is 2.83 (2).

Question: What about the “log K8H” value [3] of the same compound?
Answer: The value was 1.17 (2).

Question: And the “Σlog KiH (total basicity)” value [3, 7]?
Answer: Its value is 22.69.

Question: What about the “logKML, ZnL” value [4] of the same compound?
Answer: Its value is 18.57.

Question: And the “protonation constant Zn2LH” value [5]?
Answer: Its value is 5.02 (5).

Question: And the “protonation constant Zn2LH2” value [5]?
Answer: The value was 4.87 (4).

Question: And the “protonation constant ZnH2L” value [5]?
Answer: Its value is 5.15 (3).

Question: And the “protonation constant ZnH3L” value [5]?
Answer: The value was 4.40 (4).

Question: And the “protonation constant ZnH4L” value [5]?
Answer: Its value is 4.42 (1).

Question: What about the “protonation constant ZnHL” value [5] of the same compound?
Answer: The value was 5.65 (3).

Question: And the “stability constant of dinuclear complex Zn2L” value [5]?
Answer: The value was 3.78 (4).

Question: What about the “protonation constant CaH2L” value [6] of the same compound?
Answer: The value was 5.04 (9).

Question: And the “protonation constant CaHL” value [6]?
Answer: Its value is 6.49 (4).

Question: What about the “stability constant of dinuclear complex Ca2L” value [6] of the same compound?
Answer: The value was 2.85 (5).
